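Method: 48-hour compound exposure of cells in 96-well plates, five concentrations, linear interpolation of endpoints. Abbreviation: GI50, concentration required for 50% inhibition of growth.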 Calls of active or inactive are those of the source. Rule as the data show it: active = GI50 up to about 1.1 µM and inactive = higher.

The results in this text go back to ChEMBL document CHEMBL1201862, “PubChem BioAssay data set” (2004).

Some test systems named below: DMS-273; SNB-78; XF498; RXF 631; LXFL 529; M19-MEL; KM-20L2; DLD-1; Hs-578T.
Test in all cases: growth of human tumour cells (NCI), 48 h

As for `Cc1ccc(SCC(=O)C2=C(O)CCCC2=O)cc1`, the GI50 in the test with DMS-273, with SNB-78, with XF498, in the test on RXF 631, in the test with LXFL 529 and in the test on M19-MEL was > 100 µM (inactive) in each case. The GI50 in the test on KM-20L2 and with DLD-1 was > 100 µM (inactive) throughout.
As to `CC(=O)O[C@H]1CSC[C@@H](OC(C)=O)C1[N+](=O)[O-]` (some centres undefined), the GI50 with DMS-273 is > 100 µM (inactive); in the test on SNB-78, 33.4 µM (inactive); with RXF 631 it was > 100 µM (inactive); in the test on LXFL 529 it was 18 µM (inactive); in the test on M19-MEL, 47.3 µM (inactive); in the test on KM-20L2, > 100 µM (inactive).
For the compound `N=c1nc(N)c2cc3c(N)nc(=N)c3cc12`, the GI50 in the test with DMS-273 was 30.7 µM (inactive); with SNB-78 it was 9.35 µM (inactive); in the test with Hs-578T, 36.1 µM (inactive); in the test on RXF 631, 14.5 µM (inactive); in the test on LXFL 529, 38.1 µM (inactive); in the test with M19-MEL, 1.87 µM (inactive). Further, the GI50 with KM-20L2 was > 100 µM (inactive); in the test on DLD-1, > 73.5 µM (inactive).
For `CN(/N=C/c1cccc2cccnc12)c1c([N+](=O)[O-])cc([N+](=O)[O-])cc1[N+](=O)[O-]`, the GI50 with DMS-273 was 7.6 µM (inactive); in the test on SNB-78, > 100 µM (inactive); in the test on XF498, > 100 µM (inactive); in the test on RXF 631, > 100 µM (inactive); in the test on LXFL 529, > 100 µM (inactive); with M19-MEL, > 100 µM (inactive). Also, the GI50 in the test on KM-20L2 and in the test with DLD-1 was > 100 µM (inactive) each time.
Regarding `OC(c1cc2ccccc2[nH]1)C(O)(c1cc2ccccc2[nH]1)c1cc2ccccc2[nH]1` (centres undefined), the GI50 in the test on DMS-273 was 17.9 µM (inactive); in the test with RXF 631, 17.4 µM (inactive); in the test with LXFL 529, 10 µM (inactive); in the test with M19-MEL, 7.06 µM (inactive); in the test on KM-20L2 it was 10.1 µM (inactive); in the test with DLD-1 it was 11 µM (inactive).
Take `CCOC(=O)C(=O)Nc1ccc(C)c(C)c1`: the GI50 was 34.8 µM (inactive) in the test on DMS-273; > 100 µM (inactive) in the test with SNB-78; > 100 µM (inactive) in the test with RXF 631; > 86.9 µM (inactive) in the test on LXFL 529; > 67.5 µM (inactive) in the test on M19-MEL; > 100 µM (inactive) in the test on KM-20L2. The GI50 in the test with DLD-1 is > 100 µM (inactive).
On to `COc1c(C)c(O)c2c(=O)cc(-c3ccccc3)oc2c1C`, for which the GI50 in the test on SNB-78, with RXF 631, with LXFL 529, in the test with M19-MEL, in the test with KM-20L2 and with DLD-1 was > 100 µM (inactive) in each case.
For `O=C1/C(=C/c2ccc(Br)cc2)CCC/C1=C\c1ccc(Br)cc1`, the GI50 is 3.57 µM (inactive) in the test with DMS-273; 18.7 µM (inactive) with SNB-78; 21.8 µM (inactive) in the test with XF498; 5.05 µM (inactive) in the test on RXF 631; 3.82 µM (inactive) with LXFL 529; 4.3 µM (inactive) with M19-MEL. Also, the GI50 in the test with KM-20L2 was 5.22 µM (inactive); in the test on DLD-1 it was 5.04 µM (inactive).
For `CC1(C)O[C@H]2[C@H](O)C[C@](O)(CO)C[C@H]2O1`, the GI50 with DMS-273, in the test on SNB-78, in the test with RXF 631, in the test on LXFL 529, in the test with M19-MEL and with KM-20L2 was > 100 µM (inactive) throughout. In the test with DLD-1, the GI50 was > 100 µM (inactive).
Turning to `CN1CCC(=O)/C(=C/c2ccccc2)C1`, the GI50 with DMS-273 is 6.55 µM (inactive); with SNB-78, 19.6 µM (inactive); in the test on XF498, 18.7 µM (inactive); in the test with RXF 631 it was 16.7 µM (inactive); in the test on LXFL 529 it was 6.32 µM (inactive); in the test with M19-MEL, 5.45 µM (inactive). The results for the GI50 in the test with KM-20L2 and in the test on DLD-1 were 12.4 µM (inactive) and 6.24 µM (inactive), respectively.
Regarding `O=C(CCn1[nH]c(=O)c(Cl)c(Cl)c1=O)NOCCCc1ccccc1`, the GI50 in the test with DMS-273, in the test on SNB-78, with XF498, in the test on RXF 631, with LXFL 529 and in the test on M19-MEL was > 100 µM (inactive) in each case. Also, the GI50 in the test with KM-20L2 and in the test on DLD-1 was > 100 µM (inactive) in each case.
Consider `C/C(CCn1[nH]c(=O)ccc1=O)=N\Nc1ccc([N+](=O)[O-])cc1[N+](=O)[O-]`, for which the GI50 with DMS-273 was 25.4 µM (inactive); with SNB-78, > 100 µM (inactive); in the test with XF498, > 100 µM (inactive); with RXF 631 it was > 100 µM (inactive); in the test on LXFL 529 it was 14.6 µM (inactive); with M19-MEL, > 100 µM (inactive). Moreover, the GI50 in the test with KM-20L2 was 33.7 µM (inactive); in the test on DLD-1, > 100 µM (inactive).
Take `CCOP1(=O)C=C(C)C(Cl)=C(C)C1` (centres undefined): the GI50 in the test on DMS-273 was 13.6 µM (inactive); in the test with XF498 it was 26.8 µM (inactive); with RXF 631, 2.75 µM (inactive); in the test on LXFL 529, 17.3 µM (inactive); in the test with M19-MEL it was 21.1 µM (inactive); with KM-20L2, 32.7 µM (inactive). Besides, the GI50 with DLD-1 was 25.9 µM (inactive).
On to `COc1ccc2cc1Oc1ccc(cc1)CC1c3cc(c(OC)cc3CCN1C)Oc1c3c(cc4c1C(C2)N(C)CC4)OCO3` (centres undefined), for which the GI50 in the test on DMS-273 is 3.44 µM (inactive); with SNB-78 it was 13.9 µM (inactive); in the test on XF498, 9.55 µM (inactive); in the test on RXF 631, 13.7 µM (inactive); in the test with LXFL 529, 13 µM (inactive); in the test with M19-MEL, 3.85 µM (inactive). The GI50 in the test on KM-20L2 is 2.08 µM (inactive); in the test on DLD-1, 17 µM (inactive).
For the compound `COc1cc2cc(OC(C)=O)c3cc4c(cc3c2c(OC)c1OC)OCO4`, the GI50 in the test with DMS-273, with SNB-78, in the test on XF498, in the test with RXF 631, in the test on LXFL 529 and with M19-MEL was > 100 µM (inactive) in each case. Further, the GI50 with KM-20L2 and in the test with DLD-1 was > 100 µM (inactive) in each case.
For the compound `CCC1(c2ccncc2)CCC(=O)NC1=O` (centres undefined) [ROGLETIMIDE], the GI50 in the test on SNB-78, with XF498, in the test with RXF 631, with LXFL 529, in the test on M19-MEL and in the test on KM-20L2 was > 100 µM (inactive) throughout. In addition, the GI50 in the test with DLD-1 was > 100 µM (inactive).
As to `Cc1ccccc1NC(=O)C1C(=O)N(c2ccccc2C)C(=O)/C1=N\N` (centres undefined), the GI50 with SNB-78, with RXF 631, with LXFL 529, in the test on M19-MEL, in the test on KM-20L2 and in the test on DLD-1 was > 100 µM (inactive) throughout.
As to `O=C1c2cccc3c(Cl)ccc(c23)C(=O)N1CCCN1CCN(CCCN2C(=O)c3cccc4c(Cl)ccc(c34)C2=O)CC1`, the GI50 in the test on DMS-273 is > 100 µM (inactive); with SNB-78, 90.8 µM (inactive); with XF498 it was > 100 µM (inactive); in the test on RXF 631 it was 76.7 µM (inactive); with LXFL 529, > 100 µM (inactive); with KM-20L2, 46.2 µM (inactive). In addition, the GI50 with DLD-1 was 50.5 µM (inactive).
Regarding `CCCCNCCCNCCCNC(=O)c1csc(-c2csc(CCNC(=O)C(NC(=O)C(C)C(O)C(C)NC(=O)C(NC(=O)c3nc(C(CC(N)=O)NCC(N)C(N)=O)nc(N)c3C)C(OC3OC(CO)C(O)C(O)C3OC3OC(CO)C(O)C(OC(N)=O)C3O)c3c[nH]cn3)C(C)O)n2)n1` (centres undefined), the GI50 in the test with DMS-273 is < 0.0458 µM (active); in the test with SNB-78, > 73.3 µM (inactive); in the test with Hs-578T, 8.79 µM (inactive); in the test with RXF 631, 3.58 µM (inactive); in the test on LXFL 529, 40.6 µM (inactive); with M19-MEL it was 8.89 µM (inactive). The results for the GI50 in the test with KM-20L2 and in the test with DLD-1 were 61.5 µM (inactive) and 20.9 µM (inactive), respectively.
